Experimental data as given in patent US12544375B2, “Small molecule therapeutic for parkinson's disease paired with a biomarker of therapeutic activity” (The Board of Trustees of the Leland Stanford Junior …, priority 2019, dated 2026).

System: iPSC-derived dopaminergic neurons from PD patients
Test: Antimycin A stress-induced neurodegeneration of iPSC-derived dopaminergic neurons (TH, PI staining)
Assay type: cell-based, human
Conditions: 5 μM for 30 hrs, 10 μM Antimycin A for 6 hrs, neurons from both PD patients
Description: FIG. 3A-FIG. 3D. Miro1 Reducer Rescues Parkinson's Neurodegeneration. (FIG. 3A) Fibroblasts were treated, lysed, and blotted as indicated. Band intensities are normalized to those of ATP5β from the same blots and compared to “Healthy-2, no treatment”. n=4. (FIG. 3B-FIG. 3C) iPSC-derived neurons were treated as indicated and immunostained with anti-TH (FIG. 3B) or stained with PI and Dapi (FIG. 3C). Both Antimycin A and Miro1 Reducer were dissolved in ethanol. Neurons were pretreated with Miro1 Reducer 24 hrs before the application of Antimycin A for another 6 hrs. The same volume of ethanol was applied at the same time in negative controls. (FIG. 3B) The density of TH-positive neurons is calculated in each condition under 20×, from 10 fields each experiment, 3-4 experiments. […] (FIG. 3C) The percentage of PI-positive cells out of total cells (Dapi-positive) is calculated. n=20 fields each experiment, 4 experiments. For (FIG. 3B-FIG. 3C), comparisons with “Wild-type-I, no treatment” except otherwise indicated. […] Graphs of Mean±S.E.M show the percent of time each mitochondrion is in motion (red and blue, compared to “Wild-type-I, before treatment”), and the mitochondrial intensity normalized to that of the same axonal region at “0 min” and expressed as a fraction of the mean of “Wild-type-I, 0 min”. n=33-77 mitochondria from 5-8 axons from 5-8 separate transfections. […]

O=C(Nc1ccc(Nc2cc(-n3ccnc3)ncn2)cc1)Nc1cccc(F)c1 [Miro1 Reducer]
stress-induced neurodegeneration of dopaminergic neurons: completely rescued
